Reference: ChEMBL document CHEMBL1145898, “Molecular docking studies of natural cholinesterase-inhibiting steroidal alkaloids from Sarcococca saligna” (J Med Chem, 2003)

Key:
[1] = biological target: T1, Acetylcholinesterase (Torpedo californica, UniProt P04058); assay: In vitro binding affinity was determined against acetylcholinesterase from torpedo californica; design: species or system Tetronarce californica
[2] = biological target: T1, Acetylcholinesterase; assay: In vitro anticholinesterase activity was determined against acetylcholinesterase from Torpedo californica; design: species or system Tetronarce californica

T1 sequence (P04058 whole entry): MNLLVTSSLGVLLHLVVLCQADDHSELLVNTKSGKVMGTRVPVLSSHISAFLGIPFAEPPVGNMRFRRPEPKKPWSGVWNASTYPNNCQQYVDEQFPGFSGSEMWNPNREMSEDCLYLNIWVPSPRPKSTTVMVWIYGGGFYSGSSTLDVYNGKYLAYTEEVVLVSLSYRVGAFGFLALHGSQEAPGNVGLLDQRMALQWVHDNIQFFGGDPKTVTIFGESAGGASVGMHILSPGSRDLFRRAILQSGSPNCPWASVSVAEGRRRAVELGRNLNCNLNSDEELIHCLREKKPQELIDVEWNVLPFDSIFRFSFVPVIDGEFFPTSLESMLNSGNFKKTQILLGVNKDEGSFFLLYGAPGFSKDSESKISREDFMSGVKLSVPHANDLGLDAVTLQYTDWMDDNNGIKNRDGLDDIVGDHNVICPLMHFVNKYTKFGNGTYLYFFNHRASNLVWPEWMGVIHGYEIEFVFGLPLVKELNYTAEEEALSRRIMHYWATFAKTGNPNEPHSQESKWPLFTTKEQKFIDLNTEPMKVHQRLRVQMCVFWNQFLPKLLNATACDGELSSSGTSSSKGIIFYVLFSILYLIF

CN[C@H]1CC[C@@]2(C)[C@@H](CC[C@@H]3[C@@H]2CC[C@]2(C)[C@@H]([C@H](C)N(C)C(C)=O)CC[C@@H]32)C1
Ki [1]: 216 µM
IC50 [2]: 204 µM

C/C=C(\C)C(=O)N[C@@H]1C=C2CC[C@@H]3[C@H](CC[C@]4(C)C([C@H](C)N(C)C)=CC[C@@H]34)[C@@]2(C)C[C@H]1O
IC50 [2]: 185 µM

C/C(=C\C(=O)N(C)[C@H]1CC[C@@]2(C)[C@@H](CC[C@@H]3[C@@H]2CC[C@]2(C)C([C@H](C)N(C)C)=CC[C@@H]32)C1)C(C)C
Ki [1]: 10.7 µM
IC50 [2]: 6.2 µM

C/C=C(\C)C(=O)N[C@@H]1[C@H](OC(C)=O)[C@@H]2CC[C@@H]3[C@H](CC[C@]4(C)[C@@H]([C@H](C)N(C)C)CC[C@@H]34)[C@@]2(C)C[C@@H]1O
IC50 [2]: 182 µM

C/C=C(\C)C(=O)N[C@H]1CC[C@@]2(C)C(=CC[C@H]3[C@@H]4CC[C@H]([C@H](C)N(C)C)[C@@]4(C)CC[C@@H]32)C1=O
Ki [1]: 5.4 µM
IC50 [2]: 7.1 µM

C[C@@H]([C@H]1CC[C@H]2[C@@H]3CC[C@H]4C[C@@H](N(C)C(=O)/C=C/c5ccccc5)CC[C@]4(C)[C@H]3CC[C@]12C)N(C)C [SALIGCINNAMIDE]
Ki [1]: 12.2 µM
IC50 [2]: 19.9 µM

C[C@@H]([C@H]1CC[C@H]2[C@@H]3CC[C@H]4C(=O)C(NC(=O)c5ccccc5)=CC[C@]4(C)[C@H]3CC[C@]12C)N(C)C
Ki [1]: 3.03 µM
IC50 [2]: 5.2 µM

C/C(=C\C(=O)N(C)[C@H]1CC[C@@]2(C)[C@@H](CC[C@@H]3[C@@H]2CC[C@]2(C)[C@@H]([C@H](C)N(C)C)CC[C@@H]32)C1)C(C)C
Ki [1]: 4.1 µM

CC(=O)O[C@H]1[C@@H](NC(=O)c2ccccc2)[C@@H](O)C[C@]2(C)[C@H]3CC[C@]4(C)[C@@H]([C@H](C)N(C)C)CC[C@H]4[C@@H]3CC[C@@H]12
Ki [1]: 126 µM
IC50 [2]: 228 µM

CC(=O)N[C@H]1CC[C@@]2(C)[C@@H](CC[C@@H]3[C@@H]2CC[C@]2(C)[C@@H]([C@H](C)N(C)C)CC[C@@H]32)C1
Ki [1]: 90.3 µM
IC50 [2]: 69.9 µM

C/C=C(\C)C(=O)N[C@@H]1[C@H](OC(C)=O)[C@@H]2CC[C@H]3C4=CC[C@H]([C@H](C)N(C)C)[C@@]4(C)CC[C@@H]3[C@@]2(C)C[C@@H]1O
Ki [1]: 134 µM
IC50 [2]: 61.3 µM

CC(=O)O[C@H]1[C@@H](NC(=O)C=C(C)C)CC[C@]2(C)[C@H]3CC[C@]4(C)[C@@H]([C@H](C)N(C)C)CC[C@H]4[C@@H]3CC[C@@H]12
Ki [1]: 17.6 µM
IC50 [2]: 8.5 µM

C/C=C(\C)C(=O)N[C@H]1CC[C@@]2(C)C(=CC[C@H]3C4=CC[C@H]([C@H](C)N(C)C)[C@@]4(C)CC[C@@H]32)C1=O
Ki [1]: 2.65 µM

C[C@@H]([C@H]1CC[C@H]2[C@@H]3CC[C@H]4C[C@@H](NC(=O)c5ccccc5)[C@@H](O)C[C@]4(C)[C@H]3CC[C@]12C)N(C)C
IC50 [2]: 78.2 µM

C/C(=C\C(=O)N[C@H]1CC[C@@]2(C)[C@@H](CC[C@@H]3[C@@H]2CC[C@]2(C)[C@@H]([C@H](C)N(C)C)CC[C@@H]32)C1)C(C)C
Ki [1]: 9.05 µM
IC50 [2]: 50.6 µM
